Article PMC5498157 (Chemical research in toxicology, 2017)
Like-named read-outs stand apart in the source and are kept apart here.

Tests used:
[1] = molecular target: T1, ALKBH3 (Homo sapiens, UniProt Q96Q83); experiment: Inhibition constant; format: biochemical; details: versus αKG, 37 °C
T1 sequence (Q96Q83 1-286): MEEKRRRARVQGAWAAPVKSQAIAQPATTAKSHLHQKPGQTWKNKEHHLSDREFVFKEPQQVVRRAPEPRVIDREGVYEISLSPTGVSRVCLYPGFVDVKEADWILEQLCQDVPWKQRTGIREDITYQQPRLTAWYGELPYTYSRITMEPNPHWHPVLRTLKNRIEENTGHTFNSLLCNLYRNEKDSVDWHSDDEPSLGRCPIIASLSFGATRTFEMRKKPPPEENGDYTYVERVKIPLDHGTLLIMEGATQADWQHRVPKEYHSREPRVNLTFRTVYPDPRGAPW

[2] = molecular target: T2, AlkB (Escherichia coli, UniProt P05050); experiment: Inhibition constant; format: biochemical
[3] = molecular target: T3, ALKBH2 (Homo sapiens, UniProt Q6NS38); experiment: Inhibition of ALKBH2 repair at tumor-relevant 2HG:αKG ratios; format: biochemical; details: L-2HG:αKG = 28:1, αKG 100 µM; range over all substrates
T3 sequence (Q6NS38 1-261): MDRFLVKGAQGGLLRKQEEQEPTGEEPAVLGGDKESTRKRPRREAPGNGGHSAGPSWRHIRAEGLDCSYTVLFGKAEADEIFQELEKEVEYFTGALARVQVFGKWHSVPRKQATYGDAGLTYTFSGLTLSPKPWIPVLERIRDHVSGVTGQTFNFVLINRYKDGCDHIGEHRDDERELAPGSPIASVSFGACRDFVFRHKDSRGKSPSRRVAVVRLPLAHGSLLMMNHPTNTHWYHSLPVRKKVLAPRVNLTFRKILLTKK

[4] = molecular target: T1, ALKBH3; experiment: Inhibition of ALKBH3 repair at tumor-relevant 2HG:αKG ratios; format: biochemical; details: L-2HG:αKG = 28:1, αKG 100 µM; range over all substrates
[5] = tested on: ALKBH2 and ALKBH3; format: biochemical, human; details: L-2HG:αKG = 28:1, αKG 100 µM; range over both enzymes and all substrates
[6] = molecular target: T3, ALKBH2; experiment: Inhibition constant; format: biochemical; details: for Ki: versus αKG, 37 °C
[7] = molecular target: T3, ALKBH2; details: 37 °C
[8] = molecular target: T1, ALKBH3; details: 37 °C
[9] = molecular target: T2, AlkB; details: 37 °C
[10] = AlkB, ds-m1A, versus αKG, 37 °C
[11] = AlkB, ds-m3C, versus αKG, 37 °C
[12] = AlkB, ss-m1A, versus αKG, 37 °C
[13] = AlkB, ss-m3C, versus αKG, 37 °C

T2 sequence (P05050 whole entry): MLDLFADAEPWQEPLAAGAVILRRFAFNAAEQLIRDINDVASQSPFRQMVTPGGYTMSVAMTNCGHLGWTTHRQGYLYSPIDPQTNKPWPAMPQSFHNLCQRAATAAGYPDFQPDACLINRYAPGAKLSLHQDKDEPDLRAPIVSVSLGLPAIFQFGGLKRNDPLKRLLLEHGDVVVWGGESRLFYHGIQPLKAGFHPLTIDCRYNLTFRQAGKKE

Structure (SMILES): O=C(O)CC[C@@H](O)C(=O)O [D-2HG, D-2-hydroxyglutarate]
- Ki ([1]; ALKBH3, ss-m1A): 545 ± 77 µM
- Ki ([1]; ALKBH3, ss-m3C): 490 ± 46 µM
- Ki [2, 10]: 529 ± 126 µM
- Ki [2, 11]: 230 ± 55 µM
- Ki [2, 12]: 571 ± 166 µM
- Ki [2, 13]: 447 ± 113 µM

Structure (SMILES): O=C(O)CC[C@H](O)C(=O)O [L-2HG, L-2-hydroxyglutarate]
- Ki ([1]; ALKBH3, ss-m1A): 185 ± 23 µM
- Ki ([1]; ALKBH3, ss-m3C): 228 ± 16 µM
- Ki [2, 10]: 598 ± 173 µM
- Ki [2, 11]: 308 ± 108 µM
- Ki [2, 12]: 337 ± 99 µM
- Ki [2, 13]: 276 ± 111 µM
- inhibition of ALKBH2 activity [3]: 48–58%
- inhibition of ALKBH3 activity [4]: 31–40%
- inhibition of ALKBH2 and ALKBH3 repair activities [5]: 31–58%

Structure (SMILES): O=C(O)CNC(=O)C(=O)O [N-OG, N-oxalylglycine, reference compound]
- Ki ([6]; ALKBH2, ds-m1A): 16 ± 5 µM
- Ki ([6]; ALKBH2, ds-m3C): 7 ± 2 µM
- Ki ([6]; ALKBH2, ss-m1A): 30 ± 7 µM
- Ki ([6]; ALKBH2, ss-m3C): 40 ± 7 µM
- potency relative to D- and L-2HG ([6]; from Ki values, all repair reactions): about 10 times
- Ki ([1]; Ki, ALKBH3, ss-m1A): 27 ± 4 µM
- Ki ([1]; Ki, ALKBH3, ss-m3C): 37 ± 3 µM
- Ki [2]: 2 ± 1.3 µM
- Ki ([2]; Ki, AlkB, ds-m3C, versus αKG, 37 °C): 0.2 µM
- Ki ([2]; Ki, AlkB, ss-m1A, versus αKG, 37 °C): 0.4 ± 0.1 µM
- Ki ([2]; Ki, AlkB, ss-m3C, versus αKG, 37 °C): 0.4 ± 0.1 µM

Structure (SMILES): O=C(O)CCC(=O)C(=O)O [αKG, α-ketoglutarate]
- Km ([7]; ALKBH2, ds-m1A): 7.3 ± 0.9 µM
- kcat ([7]; ALKBH2, ds-m1A): 0.0417 ± 0.0017 s⁻¹
- Km ([7]; ALKBH2, ds-m3C): 1.9 ± 0.4 µM
- kcat ([7]; ALKBH2, ds-m3C): 0.0433 ± 0.0017 s⁻¹
- Km ([7]; ALKBH2, ss-m1A): 4.1 ± 0.9 µM
- kcat ([7]; ALKBH2, ss-m1A): 0.0183 ± 0.0017 s⁻¹
- Km ([7]; ALKBH2, ss-m3C): 1.4 ± 0.2 µM
- kcat ([7]; ALKBH2, ss-m3C): 0.0283 ± 0.0017 s⁻¹
- Km ([8]; ALKBH3, ss-m1A): 2.3 ± 0.1 µM
- kcat ([8]; ALKBH3, ss-m1A): 0.02 ± 0 s⁻¹
- Km ([8]; ALKBH3, ss-m3C): 1.9 ± 0.4 µM
- kcat ([8]; ALKBH3, ss-m3C): 0.0283 ± 0 s⁻¹
- Km ([9]; ds-m1A): 12.7 ± 1.3 µM
- kcat ([9]; ds-m1A): 0.08 ± 0.0033 s⁻¹
- Km ([9]; ds-m3C): 10.8 ± 1.9 µM
- kcat ([9]; ds-m3C): 0.137 ± 0.0067 s⁻¹
- Km ([9]; ss-m1A): 7.1 ± 1.1 µM
- kcat ([9]; ss-m1A): 0.07 ± 0.0033 s⁻¹
- Km ([9]; ss-m3C): 19.9 ± 1.3 µM
- kcat ([9]; ss-m3C): 0.408 ± 0.012 s⁻¹
